According to the supplement of paper PMC10307832:

Tests used:
Assay in all cases: relative viability (nuclei count vs DMSO), 5 days (fraction); higher = more cells survive
Avagacestat + Vorinostat = compound: NC(=O)[C@@H](CCC(F)(F)F)N(Cc1ccc(-c2ncon2)cc1F)S(=O)(=O)c1ccc(Cl)cc1 [Avagacestat] + O=C(CCCCCCC(=O)Nc1ccccc1)NO [Vorinostat] (partner 1 µM)
In short: (§1)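 Dosing by pin tool came one day after lung cancer cell lines were seeded in 1536-well plates, using either one drug or a fixed anchor-drug dose plus five library-drug doses (not always all listed) in √10 steps. After 5 days, nuclei were counted on 4× images. Relative viability is treated-well nuclei count divided by vehicle-well nuclei count, and values are medians of duplicate plates.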

Avagacestat + Crizotinib = compound: NC(=O)[C@@H](CCC(F)(F)F)N(Cc1ccc(-c2ncon2)cc1F)S(=O)(=O)c1ccc(Cl)cc1 [Avagacestat] + C[C@@H](Oc1cc(-c2cnn(C3CCNCC3)c2)cnc1N)c1c(Cl)ccc(F)c1Cl [Crizotinib] (partner 1 µM)
In short: as §1

Avagacestat + AZD7762 = compound: NC(=O)[C@@H](CCC(F)(F)F)N(Cc1ccc(-c2ncon2)cc1F)S(=O)(=O)c1ccc(Cl)cc1 [Avagacestat] + NC(=O)Nc1cc(-c2cccc(F)c2)sc1C(=O)N[C@H]1CCCNC1 [AZD7762] (partner 0.2 µM)
In short: as §1

[1] = compound: NC(=O)[C@@H](CCC(F)(F)F)N(Cc1ccc(-c2ncon2)cc1F)S(=O)(=O)c1ccc(Cl)cc1 [Avagacestat] + CC(=O)c1c(C)c2cnc(Nc3ccc(N4CCNCC4)cn3)nc2n(C2CCCC2)c1=O [Palbociclib] (partner 0.5 µM)
In short: as §1

| Cell Line | relative viability (Avagacestat + Vorinostat; first compound 0.08 µM) | relative viability (Avagacestat + Vorinostat; first compound 0.253 µM) | relative viability (Avagacestat + Vorinostat; first compound 0.8 µM) | relative viability (Avagacestat + Vorinostat; first compound 2.53 µM) | relative viability (Avagacestat + Vorinostat; first compound 8 µM) | relative viability (Avagacestat + Crizotinib; first compound 0.08 µM) | relative viability (Avagacestat + Crizotinib; first compound 0.253 µM) | relative viability (Avagacestat + Crizotinib; first compound 0.8 µM) | relative viability (Avagacestat + Crizotinib; first compound 2.53 µM) | relative viability (Avagacestat + Crizotinib; first compound 8 µM) | relative viability (Avagacestat + AZD7762; first compound 0.08 µM) | relative viability (Avagacestat + AZD7762; first compound 0.253 µM) | relative viability (Avagacestat + AZD7762; first compound 0.8 µM) | relative viability (Avagacestat + AZD7762; first compound 2.53 µM) | relative viability (Avagacestat + AZD7762; first compound 8 µM) | relative viability ([1]; first compound 0.08 µM) | relative viability ([1]; first compound 0.253 µM) | relative viability ([1]; first compound 0.8 µM) | relative viability ([1]; first compound 2.53 µM) | relative viability ([1]; first compound 8 µM) |
| --- | --- | --- | --- | --- | --- | --- | --- | --- | --- | --- | --- | --- | --- | --- | --- | --- | --- | --- | --- | --- |
| NCI-H650 | 0.439 | 0.537 | 0.56 | 0.455 | 0.435 | 0.625 | 0.762 | 0.692 | 0.744 | 0.823 | 1.06 | 0.963 | 1.19 | 1.09 | 0.822 | 0.313 | 0.361 | 0.314 | 0.275 | 0.308 |
| NCI-H727 | 1.27 | 1.19 | 1.21 | 1.18 | 1.19 | 0.986 | 0.956 | 1.08 | 0.946 | 0.775 | 0.678 | 0.651 | 0.78 | 0.651 | 0.784 | 0.578 | 0.577 | 0.606 | 0.684 | 0.672 |
| NCI-H838 | 0.737 | 0.769 | 0.788 | 0.672 | 0.705 | 0.932 | 1.09 | 0.906 | 0.858 | 0.764 | 0.988 | 0.971 | 0.997 | 0.857 | 0.861 | 0.221 | 0.244 | 0.226 | 0.208 | 0.215 |
| NCI-H1355 | 0.702 | 0.637 | 0.628 | 0.527 | 0.542 | 1.19 | 1.14 | 0.997 | 0.872 | 0.866 | 0.98 | 0.777 | 0.809 | 0.654 | 0.699 | 0.441 | 0.418 | 0.353 | 0.351 | 0.333 |
| NCI-H1437 | 1.03 | 1.12 | 1.11 | 0.893 | 0.728 | 1.14 | 1.1 | 1.12 | 1.05 | 0.824 | 1.16 | 1.15 | 1.02 | 1.09 | 0.906 | 0.329 | 0.341 | 0.361 | 0.306 | 0.294 |
| NCI-H1651 | 0.583 | 0.566 | 0.681 | 0.52 | 0.567 | 1 | 0.928 | 0.896 | 0.879 | 0.863 | 0.531 | 0.538 | 0.561 | 0.441 | 0.36 | 0.521 | 0.51 | 0.569 | 0.46 | 0.504 |
| NCI-H1666 | 1.17 | 1.23 | 1.28 | 1.12 | 1.09 | 1.3 | 1.09 | 1.23 | 1.03 | 0.957 | 1 | 0.88 | 1 | 0.93 | 0.876 | 0.69 | 0.699 | 0.642 | 0.714 | 0.644 |
| NCI-H1734 | 0.876 | 0.901 | 0.829 | 0.761 | 0.824 | 0.969 | 0.755 | 0.705 | 0.733 | 0.575 | 0.612 | 0.65 | 0.641 | 0.5 | 0.592 | 0.384 | 0.335 | 0.399 | 0.301 | 0.328 |
| NCI-H1755 | 0.884 | 0.782 | 0.891 | 0.666 | 0.791 | 1.04 | 1.01 | 0.928 | 0.865 | 0.832 | 0.425 | 0.672 | 0.4 | 0.38 | 0.473 | 0.444 | 0.438 | 0.492 | 0.389 | 0.463 |
| NCI-H1915 | 0.56 | 0.633 | 0.522 | 0.477 | 0.479 | 0.924 | 1.15 | 0.964 | 0.912 | 0.889 | 0.694 | 0.72 | 0.74 | 0.806 | 0.678 | 0.513 | 0.522 | 0.477 | 0.502 | 0.519 |
| NCI-H1944 | 0.716 | 0.635 | 0.497 | 0.554 | 0.54 | 1.09 | 1.2 | 0.958 | 0.915 | 0.919 | 0.455 | 0.603 | 0.571 | 0.454 | 0.719 | 0.32 | 0.343 | 0.265 | 0.272 | 0.269 |
| NCI-H1975 | 0.823 | 0.866 | 0.765 | 0.694 | 0.628 | 0.989 | 1.1 | 1.1 | 0.926 | 0.905 | 0.718 | 0.712 | 0.853 | 0.649 | 0.642 | 0.688 | 0.633 | 0.887 | 0.599 | 0.536 |
| NCI-H1993 | 0.797 | 0.771 | 0.74 | 0.7 | 0.631 | 0.925 | 0.777 | 1.03 | 0.907 | 0.879 | 0.956 | 0.61 | 0.741 | 0.731 | 0.6 | 0.758 | 0.714 | 0.705 | 0.572 | 0.638 |
| NCI-H2085 | 0.815 | 0.855 | 0.807 | 0.758 | 0.882 | 0.928 | 0.975 | 1 | 1.04 | 0.811 | 1.07 | 1.13 | 1.09 | 1.08 | 0.794 | 0.464 | 0.469 | 0.478 | 0.468 | 0.511 |
| NCI-H2087 | 1.14 | 0.914 | 1.07 | 0.771 | 0.68 | 1.18 | 1.01 | 0.906 | 1.07 | 0.843 | 1.41 | 1.65 | 1.31 | 1.24 | 1.18 | 0.228 | 0.181 | 0.276 | 0.223 | 0.231 |
| NCI-H2126 | 0.792 | 0.715 | 0.842 | 0.711 | 0.753 | 1.07 | 1.14 | 0.977 | 1.04 | 1.04 | 1.02 | 0.979 | 1.01 | 0.912 | 1.02 | 0.395 | 0.355 | 0.385 | 0.358 | 0.373 |
| NCI-H2170 | 1.35 | 0.995 | 0.821 | 0.876 | 0.617 | 1.27 | 1.59 | 1.2 | 1.38 | 0.976 | 0.968 | 1.14 | 0.928 | 0.793 | 0.877 | 0.421 | 0.469 | 0.419 | 0.404 | 0.433 |
| NCI-H2347 | 0.599 | 0.646 | 0.78 | 0.499 | 0.522 | 0.693 | 0.74 | 0.692 | 0.511 | 0.66 | 0.707 | 0.783 | 0.743 | 0.696 | 0.587 | 0.398 | 0.481 | 0.409 | 0.445 | 0.462 |
| NCI-H2405 | 1.04 | 1.1 | 1.12 | 0.943 | 0.933 | 0.881 | 0.825 | 0.81 | 0.849 | 0.853 | 0.895 | 0.839 | 0.73 | 0.701 | 0.754 | 0.512 | 0.532 | 0.478 | 0.448 | 0.489 |
| NCI-H3122 | 1.07 | 1.4 | 1.01 | 1.02 | 0.918 | 0.318 | 0.287 | 0.291 | 0.289 | 0.288 | 1.09 | 1.11 | 0.997 | 0.908 | 0.964 | 0.198 | 0.191 | 0.248 | 0.221 | 0.182 |
| PC-3 [JPC-3] | 0.944 | 0.87 | 1.33 | 0.857 | 0.949 | 1.15 | 1.25 | 1.16 | 1.05 | 0.993 | 0.983 | 0.972 | 1.19 | 0.842 | 0.775 | 0.544 | 0.574 | 0.66 | 0.562 | 0.6 |
| PC-14 | 0.774 | 0.725 | 0.808 | 0.589 | 0.619 | 0.995 | 0.97 | 0.936 | 1.04 | 0.829 | 0.53 | 0.568 | 0.581 | 0.39 | 0.392 | 0.645 | 0.618 | 0.687 | 0.461 | 0.524 |
| RERF-LC-KJ | 0.724 | 0.64 | 0.801 | 0.685 | 0.601 | 0.799 | 0.839 | 0.924 | 0.792 | 0.761 | 1.02 | 1.14 | 1.24 | 0.929 | 0.751 | 1.16 | 1.23 | 1.2 | 1.09 | 1.14 |
